Experimental data: paper PMC7827406, “Structure–Activity Relationship (SAR) Study of Spautin-1 to Entail the Discovery of Novel NEK4 Inhibitors” (International Journal of Molecular Sciences, 2021)
Read-outs that look alike come from different tables or passages of the source.

Assays:
Assay in all cases: biochemical
CK1δ(h) = molecular target: T1, CK1δ(h) (Homo sapiens, UniProt P48730); parameters: Eurofins KinaseProfiler full panel at Km ATP, residual kinase activity (%) relative to DMSO
T1 construct: gene CSNK1D
In short: (§1)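 Radiometric kinase activity assays were run with ATP at Km and compounds at 10 µM, and remaining activity (%) was reported. A separate competitive binding screen measured DNA-tagged kinase displaced from immobilized active-site ligands by qPCR, giving percent kinase still bound at 10 µM compound in DMSO.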

CK1ε(h) = molecular target: T2, CK1ε(h) (Homo sapiens, UniProt P49674); parameters: Eurofins KinaseProfiler full panel at Km ATP, residual kinase activity (%) relative to DMSO
T2 construct: gene CSNK1E
In short: as §1

EphA1(h) = molecular target: T3, EphA1(h) (Homo sapiens, UniProt P21709); parameters: Eurofins KinaseProfiler full panel at Km ATP, residual kinase activity (%) relative to DMSO
T3 sequence (P21709 1-976): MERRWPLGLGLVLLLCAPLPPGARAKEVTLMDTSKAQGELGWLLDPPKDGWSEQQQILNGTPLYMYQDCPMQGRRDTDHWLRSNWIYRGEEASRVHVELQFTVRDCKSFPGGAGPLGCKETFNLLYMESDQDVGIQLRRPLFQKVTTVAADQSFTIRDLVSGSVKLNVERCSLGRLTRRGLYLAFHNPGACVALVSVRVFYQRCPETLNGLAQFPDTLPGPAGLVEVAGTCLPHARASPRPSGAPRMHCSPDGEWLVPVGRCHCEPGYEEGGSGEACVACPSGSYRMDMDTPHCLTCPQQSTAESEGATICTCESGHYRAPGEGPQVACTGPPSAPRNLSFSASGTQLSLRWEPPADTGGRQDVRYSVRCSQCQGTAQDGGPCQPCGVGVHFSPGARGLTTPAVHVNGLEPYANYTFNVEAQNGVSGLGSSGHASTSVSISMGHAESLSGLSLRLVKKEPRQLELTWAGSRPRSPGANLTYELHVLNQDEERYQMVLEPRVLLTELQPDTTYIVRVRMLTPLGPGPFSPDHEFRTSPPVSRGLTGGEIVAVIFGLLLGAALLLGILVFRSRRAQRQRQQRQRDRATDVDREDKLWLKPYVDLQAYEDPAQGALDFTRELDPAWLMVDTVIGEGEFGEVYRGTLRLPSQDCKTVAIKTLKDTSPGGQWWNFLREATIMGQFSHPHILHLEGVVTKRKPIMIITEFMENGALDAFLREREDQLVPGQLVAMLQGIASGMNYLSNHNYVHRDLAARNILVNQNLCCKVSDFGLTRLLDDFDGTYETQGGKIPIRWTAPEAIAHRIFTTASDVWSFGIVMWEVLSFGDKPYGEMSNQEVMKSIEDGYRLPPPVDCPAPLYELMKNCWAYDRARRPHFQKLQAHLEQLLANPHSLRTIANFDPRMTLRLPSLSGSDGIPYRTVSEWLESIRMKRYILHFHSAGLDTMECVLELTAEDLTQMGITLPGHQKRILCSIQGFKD
In short: as §1

GSK3β(h) = molecular target: T4, GSK3β(h) (Homo sapiens, UniProt P49841); parameters: Eurofins KinaseProfiler full panel at Km ATP, residual kinase activity (%) relative to DMSO
T4 construct: gene GSK3B
In short: as §1

NLK(h) = molecular target: T5, NLK(h) (Homo sapiens, UniProt Q9UBE8); parameters: Eurofins KinaseProfiler full panel at Km ATP, residual kinase activity (%) relative to DMSO
T5 sequence (Q9UBE8 1-527): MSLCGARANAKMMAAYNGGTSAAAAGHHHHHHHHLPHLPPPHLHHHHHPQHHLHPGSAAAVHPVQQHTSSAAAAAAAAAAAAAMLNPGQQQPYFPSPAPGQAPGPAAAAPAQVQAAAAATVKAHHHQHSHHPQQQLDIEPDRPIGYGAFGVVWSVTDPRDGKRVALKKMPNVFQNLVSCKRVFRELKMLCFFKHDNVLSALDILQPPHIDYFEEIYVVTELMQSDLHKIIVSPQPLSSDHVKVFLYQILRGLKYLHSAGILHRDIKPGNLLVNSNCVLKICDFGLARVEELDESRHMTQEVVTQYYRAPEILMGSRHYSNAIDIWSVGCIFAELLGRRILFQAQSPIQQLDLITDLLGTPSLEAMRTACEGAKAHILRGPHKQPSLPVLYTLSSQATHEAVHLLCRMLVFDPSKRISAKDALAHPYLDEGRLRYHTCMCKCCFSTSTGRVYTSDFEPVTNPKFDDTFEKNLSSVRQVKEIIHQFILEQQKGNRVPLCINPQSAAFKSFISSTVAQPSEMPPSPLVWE
In short: as §1

Tie2(R849W)(h) = molecular target: T6, Tie2(R849W)(h) (Homo sapiens, UniProt Q02763, R849W); parameters: Eurofins KinaseProfiler full panel at Km ATP, residual kinase activity (%) relative to DMSO
T6 construct: gene TEK
In short: as §1

ACTR2(h) = molecular target: T7, ACTR2(h) (Homo sapiens, UniProt P27037); parameters: Eurofins kinase panel, residual kinase activity (%) at 10 uM relative to DMSO
T7 construct: gene ACVR2A
Method: Eurofins performed a “Full KP Panel [Km ATP], KinaseProfile” which contains 429 radiometric kinase activity assays. The remaining kinase activity (%) was determined after treatment with the compounds at a concentration of 10 µM (Cfr. supporting information). Since we could not confirm the interaction between Spautin-1 analogues and USP13, a kinase screening was performed using a set of four compounds (Spautin-1 and three analogues) to discover off-targets and identify kinases that are potentially responsible for the reduction in cell viability observed in our screen (Table 2). The KINOMEscan from Eurofins was performed (see Table S1). This screen consists of a competitive binding assay in which the DNA-tagged kinase is incubated with one of the compounds in the presence of immobilized active site binding ligands. Binding of the compounds to the kinase hampers the binding of the kinase to the ligands and this inhibition was quantified by qPCR.

[1] = read-out: Residual activity (%) 5ay
[2] = read-out: Residual activity (%) Spautin-1 5aa
[3] = read-out: Residual activity (%) 5at
[4] = read-out: Residual activity (%) 5as

T2 sequence (P49674 whole entry): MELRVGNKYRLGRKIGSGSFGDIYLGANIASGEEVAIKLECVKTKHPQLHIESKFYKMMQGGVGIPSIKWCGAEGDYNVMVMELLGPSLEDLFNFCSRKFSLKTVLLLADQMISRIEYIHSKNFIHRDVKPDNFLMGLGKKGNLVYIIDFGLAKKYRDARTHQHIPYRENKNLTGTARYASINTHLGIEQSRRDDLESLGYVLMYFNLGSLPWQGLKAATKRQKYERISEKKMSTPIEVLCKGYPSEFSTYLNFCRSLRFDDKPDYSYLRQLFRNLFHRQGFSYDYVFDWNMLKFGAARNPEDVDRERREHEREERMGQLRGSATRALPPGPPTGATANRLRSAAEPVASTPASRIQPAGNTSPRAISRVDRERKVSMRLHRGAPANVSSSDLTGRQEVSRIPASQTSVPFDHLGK
T1 sequence (P48730 whole entry): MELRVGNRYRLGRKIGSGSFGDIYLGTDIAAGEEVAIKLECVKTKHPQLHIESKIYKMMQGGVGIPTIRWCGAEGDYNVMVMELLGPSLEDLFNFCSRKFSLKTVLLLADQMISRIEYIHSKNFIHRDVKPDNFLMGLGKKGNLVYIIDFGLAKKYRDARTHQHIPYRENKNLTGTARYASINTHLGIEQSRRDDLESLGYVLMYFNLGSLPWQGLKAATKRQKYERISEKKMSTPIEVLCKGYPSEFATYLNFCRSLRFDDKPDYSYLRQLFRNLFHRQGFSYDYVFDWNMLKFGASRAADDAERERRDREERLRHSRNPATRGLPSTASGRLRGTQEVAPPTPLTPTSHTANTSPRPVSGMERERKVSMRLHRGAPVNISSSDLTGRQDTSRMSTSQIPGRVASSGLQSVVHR
T4 sequence (P49841 whole entry): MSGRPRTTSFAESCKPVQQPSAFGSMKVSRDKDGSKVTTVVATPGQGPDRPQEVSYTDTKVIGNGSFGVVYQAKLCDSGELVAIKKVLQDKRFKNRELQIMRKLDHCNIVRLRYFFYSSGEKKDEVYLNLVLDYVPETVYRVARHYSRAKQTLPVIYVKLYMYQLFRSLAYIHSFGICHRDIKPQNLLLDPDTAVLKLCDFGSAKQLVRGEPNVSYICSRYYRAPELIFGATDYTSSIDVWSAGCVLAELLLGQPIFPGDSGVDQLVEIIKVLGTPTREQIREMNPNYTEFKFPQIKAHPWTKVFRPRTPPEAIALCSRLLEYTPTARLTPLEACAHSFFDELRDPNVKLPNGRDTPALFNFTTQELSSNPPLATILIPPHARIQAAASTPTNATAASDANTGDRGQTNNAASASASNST
T6 sequence (Q02763 whole entry R849W): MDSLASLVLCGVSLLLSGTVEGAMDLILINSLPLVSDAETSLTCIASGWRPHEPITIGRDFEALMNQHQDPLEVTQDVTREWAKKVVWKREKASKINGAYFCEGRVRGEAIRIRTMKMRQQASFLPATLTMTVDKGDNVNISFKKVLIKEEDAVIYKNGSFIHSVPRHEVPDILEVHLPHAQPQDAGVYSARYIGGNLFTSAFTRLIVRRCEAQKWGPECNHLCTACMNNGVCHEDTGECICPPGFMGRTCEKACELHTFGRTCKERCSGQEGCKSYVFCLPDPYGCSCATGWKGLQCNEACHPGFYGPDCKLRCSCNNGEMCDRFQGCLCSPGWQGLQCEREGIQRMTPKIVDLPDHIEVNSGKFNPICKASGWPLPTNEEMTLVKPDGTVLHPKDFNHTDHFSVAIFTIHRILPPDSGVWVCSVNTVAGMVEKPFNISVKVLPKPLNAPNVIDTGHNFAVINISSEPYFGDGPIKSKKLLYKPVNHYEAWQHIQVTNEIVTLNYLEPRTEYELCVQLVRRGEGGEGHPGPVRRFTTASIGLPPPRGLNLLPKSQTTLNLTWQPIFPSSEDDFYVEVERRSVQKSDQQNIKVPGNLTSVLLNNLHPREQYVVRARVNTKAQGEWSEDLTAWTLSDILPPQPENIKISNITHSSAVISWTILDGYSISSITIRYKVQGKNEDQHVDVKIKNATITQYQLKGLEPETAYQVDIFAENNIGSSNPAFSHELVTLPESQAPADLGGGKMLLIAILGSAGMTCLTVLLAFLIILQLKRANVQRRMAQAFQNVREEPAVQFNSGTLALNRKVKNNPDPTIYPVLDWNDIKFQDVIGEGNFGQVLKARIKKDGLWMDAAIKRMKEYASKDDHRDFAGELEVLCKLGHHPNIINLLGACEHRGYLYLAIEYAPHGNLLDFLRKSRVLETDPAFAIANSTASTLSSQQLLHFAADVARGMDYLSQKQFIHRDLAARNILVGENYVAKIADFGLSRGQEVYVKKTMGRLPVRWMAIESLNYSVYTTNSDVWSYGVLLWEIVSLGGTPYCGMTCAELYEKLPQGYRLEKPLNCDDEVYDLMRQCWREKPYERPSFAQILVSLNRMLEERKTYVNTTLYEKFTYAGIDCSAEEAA
T7 sequence (P27037 whole entry): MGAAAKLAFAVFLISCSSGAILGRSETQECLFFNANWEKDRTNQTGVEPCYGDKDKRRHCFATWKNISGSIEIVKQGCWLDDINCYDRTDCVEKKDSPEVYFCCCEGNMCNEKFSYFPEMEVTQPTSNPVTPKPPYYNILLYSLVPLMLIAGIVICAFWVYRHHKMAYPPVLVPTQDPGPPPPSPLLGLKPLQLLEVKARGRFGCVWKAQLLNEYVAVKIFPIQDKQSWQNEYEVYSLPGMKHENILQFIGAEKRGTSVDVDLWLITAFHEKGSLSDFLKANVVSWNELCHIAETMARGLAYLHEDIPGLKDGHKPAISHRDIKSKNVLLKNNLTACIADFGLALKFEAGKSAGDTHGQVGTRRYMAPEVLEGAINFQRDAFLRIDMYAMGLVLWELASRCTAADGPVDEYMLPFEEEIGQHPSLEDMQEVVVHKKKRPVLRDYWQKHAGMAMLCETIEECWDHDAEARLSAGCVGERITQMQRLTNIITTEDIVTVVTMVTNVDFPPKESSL

## COc1ccc2ncnc(Nc3cccc(F)c3)c2c1 [5ay, N-(3-Fluorophenyl)-6-Methoxy-4-Quinazolinamine]
CK1δ(h); [1]
  remaining activity at 10 µM: 86%
CK1ε(h); [1]
  remaining activity at 10 µM: 78%
EphA1(h); [1]
  remaining activity at 10 µM: 61%
GSK3β(h); [1]
  remaining activity at 10 µM: 76%
NLK(h); [1]
  remaining activity at 10 µM: 80%
Tie2(R849W)(h); [1]
  remaining activity at 10 µM: 110%
ACTR2(h); [1]
  remaining activity at 10 µM: 85%

## Fc1ccc(CNc2ncnc3ccc(F)cc23)cc1 [5aa, 6-Fluoro-N-(4-fluorobenzyl)-4-Quinazolinamine]
CK1δ(h); [2]
  remaining activity at 10 µM: 74%
CK1ε(h); [2]
  remaining activity at 10 µM: 87%
EphA1(h); [2]
  remaining activity at 10 µM: 93%
GSK3β(h); [2]
  remaining activity at 10 µM: 85%
NLK(h); [2]
  remaining activity at 10 µM: 85%
Tie2(R849W)(h); [2]
  remaining activity at 10 µM: 91%
ACTR2(h); read-out: Residual activity (%) Spautin-1
  remaining activity at 10 µM: 92%

## Fc1ccc2ncnc(NCCc3ccc(Cl)cc3)c2c1 [5at, N-[2-(4-Chlorophenyl)Ethyl]-6-Fluoro-4-Quinazolinamine]
CK1δ(h); [3]
  remaining activity at 10 µM: 80%
CK1ε(h); [3]
  remaining activity at 10 µM: 82%
EphA1(h); [3]
  remaining activity at 10 µM: 74%
GSK3β(h); [3]
  remaining activity at 10 µM: 97%
NLK(h); [3]
  remaining activity at 10 µM: 82%
Tie2(R849W)(h); [3]
  remaining activity at 10 µM: 90%
ACTR2(h); [3]
  remaining activity at 10 µM: 97%

## Fc1ccc(CCNc2ncnc3ccc(F)cc23)cc1 [5as, 6-Fluoro-N-[2-(4-Fluorophenyl)Ethyl]-4-Quinazolinamine]
CK1δ(h); [4]
  remaining activity at 10 µM: 80%
CK1ε(h); [4]
  remaining activity at 10 µM: 76%
EphA1(h); [4]
  remaining activity at 10 µM: 66%
GSK3β(h); [4]
  remaining activity at 10 µM: 91%
NLK(h); [4]
  remaining activity at 10 µM: 93%
Tie2(R849W)(h); [4]
  remaining activity at 10 µM: 98%
ACTR2(h); [4]
  remaining activity at 10 µM: 83%
